This is an account of results in patent publication US20060167276A1, “Clausenamide c5-hydroxyl derivatives and n-substituted derivatives, processes for their preparation, its composition and use” (priority 2002, published 2006).

The conditions of series [1]: several behavioral studies; cited from earlier work.
The conditions of series [2]: in vivo and in vitro; cited from earlier work.
The subject of series [3] is C17-2 mouse brain neural stem cells. In words: Cell proliferation of mouse brain neural stem cells (MTT, OD 490 nm). The conditions noted are these: for Result (OD value): MTT at 4th day, OD 490 nm; for Cell proliferation %: control group = 100%. It counts as cell-based. On the procedure:
C17-2 mouse brain neural stem cells (C17-2 cells) were continuously cultured in 1640 medium with 10% horse serum and 10% fetal bovine serum at 5% CO2 and 37° C., dissociated to single cell suspension by 0.1% trypsin solution, centrifuged at 1,000 rpm×5 min and rinsed with medium. The cells were seeded in a 96-well plate, 1×10^3 cells per well, 3 well per group, continuously cultured. After 24 hours, the test compounds were added, doses of each of the C5-hydroxyl substituted clausenamides and N-substituted clausenamide derivatives were 0.1 μM, 1 μM and 10 μM respectively. The growth situation of the cells was observed under a microscope, once daily. At the 4th day, media in each well were pipetted, phosphate buffer solution containing MTT was added. 4 Hours later, the fluid was discarded, and a DMSO solution was added. The cells were incubated at 37° C. for 10 min under shaken. OD values on 490 nm of each well were detected. Set the growth rate of the control group as 100%, and the growth rates of each dose were given by comparison with the control group and t-tested.

For the next series, the system named is rat hippocampus. Briefly: LTP / synaptic transmission in rat hippocampus (population spike amplitude, dentate gyrus). In kind it is in vivo. The conditions noted are these: for Relative PS (PSA %): lateral ventricle, prior administration = 100. An excerpt: Male adult SD Rats (5 per group) were anesthetized with 20% (w/v) urethane carbamate (1.0 g·kg^−1, ip) and fixed in a stereotaxic head holder. According to the reference of Pellegrino stereotaxic spectrum of rat, recording electrodes (stainless steel needle of 0.2 mm diameter were insulted except for 0.2 mm tip) were placed in the dentate gyrus granule cell layer. The stimulating electrodes (two stainless steel needles of 0.15 mm diameter coated with Teflon except for the 0.2 mm tip, and the distance between two needles was 0.5 mm) were planted between the fibre of perforant path (PP) in rat. Continuous pulse was provided by electronic stimulator, and delivered to PP through stimulus isolator and stimulating electrodes. Electrode depth was then adjusted until a typical excitatory postsynaptic potential (EPSP) was observed. Electric current was magnified by amplifier and collected by computer, then processed by DataWave software. The stimulus intensity was adjusted to produce population spike (PS) with a slope that was ≈50% of the maximum. Single-pulse test stimuli were at an interval of 30 sec during the experiment. Population spike amplitude (PSA) was recorded and the relatively percent of PSA was calculated according to the formula (PSA/basic value).

Consider `CN1C(=O)C(O)C(c2ccccc2)C1C(O)c1ccccc1` (racemic) [clausenamide], for which the nootropic effect entry in series [1] is recorded as “Significant nootropic effect”.

For the molecule `O=C1C(O)C(c2ccccc2)C(C(O)c2ccccc2)N1CO` (single isomer, unassigned; (-)) [(−)CM1, (−) N-hydroxymethyl norclausenamide], the “content in the metabolites of (−) clausenamide compared with the corresponding (+) isomers in the metabolites of (+) clausenamide” value in series [2] is given as “significantly higher”.

Turning to `CN1C(=O)C(O)C(c2ccccc2)C1(O)C(O)c1ccccc1` (single isomer, unassigned; (-)) [(−)CM2, (−) 5-hydroxyclausenamide], in series [2], the “content in the metabolites of (−) clausenamide compared with the corresponding (+) isomers in the metabolites of (+) clausenamide” value was “significantly higher”.

Consider `CN1C(=O)[C@H](O)[C@@H](c2ccccc2)[C@@]1(O)[C@H](O)c1ccccc1` [(+)II3, (+)-(3R,4R,5R,6R)-5-hydroxy-clausenamide], for which, in series [3], the “effects on cell proliferation of mouse brain neural stem cells (conclusion)” value was “significant effects”. In series [3] (at doses of 0.1 μM and 1 μM), the “promotion effects on cell proliferation of mouse brain neural stem cells” value was “significant promotion effects”. Also, the “Result (OD value)” value in series [3] (dose 10^−5 M) is 0.131 ± 0.009; in series [3] (dose 10^−6 M), 0.199 ± 0.024; in series [3] (dose 10^−7 M) it was 0.253 ± 0.020. Also, the Cell proliferation % in series [3] (dose 10^−5 M) is 95.62%; in series [3] (dose 10^−6 M) it was 145.26%; in series [3] (dose 10^−7 M), 184.67%. The “Relative PS (PSA %)” value with rat hippocampus (15 min after administration) turned out to be 91.74 ± 17.21%; with rat hippocampus (30 min after administration), 117.87 ± 14.93%; with rat hippocampus (45 min after administration) it was 161.14 ± 13.94 %; in the series with rat hippocampus (60 min after administration), 188.03 ± 5.28 %. In the series with rat hippocampus (P<0.05 vs. control, n=5), the “effects on synaptic transmission” value is “significantly upstanding effects”.

Consider `CC(=O)O[C@@H]1C(=O)N(C)[C@@](O)([C@H](O)c2ccccc2)[C@H]1c1ccccc1` [(−)-3-O-AC-II1, (−)-(3S,4S,5S,6R)-3-O-acetyl-5-hydroxy-clausenamide], for which the “Result (OD value)” value in series [3] (dose 10^−5 M) turned out to be 0.063 ± 0.014; in series [3] (dose 10^−6 M), 0.072 ± 0.006; in series [3] (dose 10^−7 M), 0.179 ± 0.004. The Cell proliferation % in series [3] (dose 10^−5 M) is on record as 45.99%; in series [3] (dose 10^−6 M), 52.55%; in series [3] (dose 10^−7 M) it was 130.66%. In addition, the “Relative PS (PSA %)” value in the series on rat hippocampus (15 min after administration) came to 78.91 ± 13.90%; with rat hippocampus (30 min after administration) it was 83.73 ± 13.59%; in the series with rat hippocampus (45 min after administration), 94.60 ± 8.87%; in the series on rat hippocampus (60 min after administration), 102.66 ± 2.88%.

For `CN1C(=O)[C@H](O)[C@@H](c2ccccc2)[C@]1(O)[C@H](O)c1ccccc1` [(−)II2, (−)-(3R,4R,5S,6R)-5-hydroxy-clausenamide], the “Result (OD value)” value amounted to 0.156 ± 0.095 in series [3] (dose 10^−5 M), 0.163 ± 0.038 in series [3] (dose 10^−6 M) and 0.233 ± 0.033 in series [3] (dose 10^−7 M). Further, the Cell proliferation % in series [3] (dose 10^−5 M) was 113.87%; in series [3] (dose 10^−6 M), 118.98%; in series [3] (dose 10^−7 M), 170.07%. The “Relative PS (PSA %)” value with rat hippocampus (15 min after administration) is recorded as 110.55 ± 7.27%; with rat hippocampus (30 min after administration), 103.09 ± 10.12%; in the series on rat hippocampus (45 min after administration), 94.49 ± 10.53%; with rat hippocampus (60 min after administration), 88.40 ± 14.42%.

For `CN1C(=O)[C@@H](O)[C@H](c2ccccc2)[C@]1(O)[C@@H](O)c1ccccc1` [(−)II3, (−)-(3S,4S,5S,6S)-5-hydroxy-clausenamide], the “Result (OD value)” value came to 0.088 ± 0.006 in series [3] (dose 10^−5 M), 0.187 ± 0.020 in series [3] (dose 10^−6 M) and 0.168 ± 0.076 in series [3] (dose 10^−7 M). In addition, the Cell proliferation % in series [3] (dose 10^−5 M) is 64.23%; in series [3] (dose 10^−6 M), 136.50%; in series [3] (dose 10^−7 M), 122.63%. In addition, the “Relative PS (PSA %)” value came out at 92.83 ± 17.54% in the series with rat hippocampus (15 min after administration), 87.11 ± 30.54% in the series on rat hippocampus (30 min after administration), 97.34 ± 25.71% in the series with rat hippocampus (45 min after administration) and 98.30 ± 28.59% in the series on rat hippocampus (60 min after administration).
